# From patent US20090035345A1, “Nuclear Receptors Agonists for Treatment of Atherosclerosis and/or Related Cardiovascular Disease” (ACADEMISCH MEDISCH CENTRUM, BUREAU, priority 2005, published 2009)
# Entries after “also recorded” stand apart in the source; their conditions may differ.
# How the values were obtained:
# [1] = tested on: saphenous vein smooth muscle cells; experiment: Cyclic stretch-induced DNA synthesis ([3H]-thymidine incorporation) in venous SMCs; assay type: cell-based, human
# Method: To study stretch-induced responses, smooth muscle cells were seeded in 6-well plates containing collagen Icoated flexible membranes (BioFlex® culture plates, Dunn Labortechnik GmbH, Asbach, Germany) and were stretched in the Flexercell FX3000 apparatus (Dunn Labortechnik) for 1, 2, 4, 6, or 24 h at 10% stretch at 0.5 Hz or served as control (without stretch). Silicone-based lubricant was applied to prevent friction between the membrane and loading post.
# Smooth muscle cells were seeded in 6-well stretch plates and when wells were confluent, smooth muscle cells were made quiescent for 16 h in medium containing 0.5% (v/v) FBS.
# The plates were transferred into the Loading Station™ and stretched for 24 h. Control plates, without stretch, were cultured under identical conditions. Thereafter, cells were labeled for 4 h with 0.5 microCi/mL [methyl-^3H]-thymidine (Amersham Biosciences).
# Incorporated radioactivity was precipitated for 30 min at 4° C. with 10% (wt/v) trichloroacetic acid, washed twice with 5% (wt/v) trichloroacetic acid and dissolved in 0.5N NaOH. [^3H]-thymidine was measured by liquid scintillation counting.
# When cells were infected with mock- or TR3-containing adenovirus (3×10^8 plaque-forming units) for 2 h, the cells were allowed to recover for 24 h in complete medium before they were made quiescent. Agonist treatment (6-MP) was initiated 1 h prior to stretch with 0, 1, 10, 25 microM C-DIM (stock at 40 mM in DMSO).
# The following small interfering RNA (siRNA) sequences were used: TR3 siRNA, 5′-CAG UCC AGC CAU GCU CCU C dTdT-3′, and mutated control siRNA, 5′-CAG ACG AGC CUU GCU CGU C dTdT-3′ (Ambion Inc., UK). Per Flexerplate-well 1 μg of siRNA was transfected into 5×10^5 SMCs using Nucleofector reagent for SMCs (Amaxa GmbH, Cologne, Germany) as per the manufacturer's recommendations and subsequently the cells were placed in the stretch plates and were treated as described above.
# [2] = tested on: SMα-actin, calponin and p27Kip1 protein; experiment: Western blotting of stretched venous SMCs; assay type: cell-based, human; settings: 25 μM 6-MP
# Method: Sodium dodecyl sulfate-polyacrylamide gel electrophoresis was performed with cell lysates (30 microg per lane) and concentrated culture media (equivalent of 200 microl per lane). Proteins were transferred to nitrocellulose-Protran (Schleicher and Schuell, 's-Hertogenbosch, The Netherlands).
# Expression of p27^Kip1 (BD Biosciences, Alphen a/d Rijn, The Netherlands), p21^Cip1 (BD), SM alpha-actin (DAKO), PAI-1 (MAI-12; Biopool, Umea, Sweden), TR3 (M-210; Santa Cruz Biotechnology, Santa Cruz, Calif.), calponin (clone hCP; Sigma) and alpha-tubulin (Cedar Lane, Hornby, Ontario, Canada) was studied, using the indicated antibodies directed against these proteins. Primary antibodies were incubated overnight at 4° C. in 5% Protifar plus (Nutricia, Cuijk, The Netherlands) in TBS. As secondary antibodies, horseradish peroxidase-conjugated goat anti-rabbit (for p27^Kip1 and TR3 detection) or goat anti-mouse (for all others) (BioRad 11 Laboratories Inc., Hercules, Calif.) in a dilution of 1:5000 in TBS were used.
# Proteins were visualized by enhanced chemiluminescence detection (Lumi-Light^PLUS; Roche Diagnostics GmbH, Mannheim, Germany). Quantitative analysis was performed by the Lumi-Imager (Boehringer Mannheim, Mannheim, Germany). alpha-Tubulin staining served as a control for loading.
# human SMCs = experiment: Apoptosis of SMCs, Hoechst staining of nuclei; assay type: cell-based; settings: human, 24 h
# Method: Human SMCs were explanted from umbilical cord arteries. Cells were cultured in DMEM (Invitrogen Life Technology, Breda, The Netherlands) with 10% (v/v) fetal bovine serum (FBS) with penicillin and streptomycin (Invitrogen). Cells were used at passages five to seven. […] To determine cellular viability, cells were washed with PBS and subsequently incubated in medium in the presence of 0.5-mg/ml 3-(4,5-dimethylthiazol-2-yl)-2,5-diphenyltetrazolium bromide (MTT; Sigma Diagnostics, St. Louis). After two hours, medium was discarded, formazan crystals were dissolved in isopropanol and optical density was measured at 590 nm. Apoptosis was induced by incubating cells for 24 hours in medium with 0.25 μM staurosporine (Sigma). Subsequently, SMCs were fixed, stained with Hoechst dye and the relative number of apoptotic nuclei was determined.
# [3] = In vitro release from drug-eluting poly(ε-caprolactone) cuffs; assay type: physicochemical; settings: 0.5% and 1% cuffs, 4-week period
# Method: Briefly, 6-MP was dissolved at different concentrations in blended, molten drug-polymer mix and cuffs were designed to fit around the femoral artery of mice. Drug-eluting cuffs are shaped as longitudinally cut cylinders with an internal diameter of 0.5 mm, an external diameter of 1.0 mm, a length of 2.0 mm and a weight of approximately 5.0 mg. Drug-eluting cuffs were loaded with 0.5% (w/w) and 1% (w/w) 6-MP and the in vitro release profiles were determined for a 4-week period, as described before (n=5/group).
# [4] = tested on: cuff-induced neointima formation in mouse femoral artery; experiment: Femoral artery cuff murine model, 6-MP-eluting cuffs; assay type: in vivo; settings: for cuff-induced neointima formation (intimal area): 4 weeks
# Description: All animal work was approved by AMC institutional regulatory authority and carried out in compliance with guidelines issued by the Dutch government. Wild-type FVB mice (Wt), transgenic mice expressing the full-length Nur77 gene (Nur77), or mice expressing a dominant-negative variant of Nur77 (ΔTA) (the latter two strains under control of the SM22α promoter, which directs the expression of transgenes specific to SMCs), in an FVB background, were used for experiments. Male mice, 10-12 weeks old, were fed a standard chow diet. At the time of surgery, mice were anaesthetized with an intraperitoneal injection of 5 mg/kg Dormicum (Roche, Basel, Switzerland), 0.5 mg/kg Dormitor (Orion, Helsinki, Finland) and 0.05 mg/kg Fentanyl (Janssen, Geel, Belgium). The femoral artery was dissected from its surroundings and loosely sheathed with a non-constrictive cuff. Either a control, empty cuff or a 6-MP eluting cuff (0.5% or 1% w/w) was used (n=6/group).
# Wt and Nur77-overexpressing transgenic mice were sacrificed at 28 days after cuff placement, whereas ATA transgenic mice were sacrificed at 14 days after surgery. The thorax was opened and a mild pressure-perfusion (100 mmHg) with 4% (v/v) formaldehyde in 0.9% (w/v) NaCl was performed for 5 min by cardiac puncture. After perfusion, femoral arteries were harvested, fixed overnight in 4% (v/v) formaldehyde, dehydrated and paraffin embedded. Serial cross-sections (5 μm thick) for histological analysis were used throughout the entire length of the cuffed femoral artery. All samples were routinely stained with hematoxylin-phloxine-saffron (HPS). Weigert's elastin staining was used to visualize elastic laminae. Ten equally spaced cross-sections were used in all mice to quantify intimal lesions. Using image analysis software (Leica Qwin, Wetzlar, Germany), total cross sectional medial area was measured between the external and internal elastic lamina; total cross sectional intimal area was measured between the endothelial cell monolayer and the internal elastic lamina.
# In vitro experiments were repeated at least twice and are presented as mean±SD and were analyzed by the Student t-test. Animal experiments are presented as mean±SEM and were analyzed using the Mann-Whitney U-test (SPSS 11.5 for Windows). P-values less than 0.05 were regarded as statistically significant.
# [5] = Nur77 transgenic mice, 0.5% 6-MP cuff
# [6] = Nur77 transgenic mice, 1% 6-MP cuff
smiles,measurement,setting,value
"Sc1ncnc2nc[nH]c12 [6-MP, 6-mercaptopurine]",effect on stretch-induced DNA synthesis after TR3 knockdown,[1]; venous SMCs transfected with TR3-siRNA,completely abolishes the effect of 6-MP; also recorded: no longer inhibits DNA synthesis
same,stretch-induced DNA synthesis,"[1]; venous SMCs, 24 h cyclic stretch, 25 μM 6-MP",completely inhibited
same,stretch-induced DNA synthesis ([3H]-thymidine incorporation),"[1]; venous SMCs, 24 h cyclic stretch, 6-MP at various concentrations",reduced stretch-mediated proliferation in a dose-dependent manner
same,SMα-actin and calponin as well as p27Kip1 protein expression,[2],increases
same,apoptosis (apoptotic nuclei),human SMCs,3%±2%
same,in vitro release profile,[3],sustained and dose-dependent release
same,intima/media ratio,[4]; [5],0.47±0.05
same,cuff-induced neointima formation (intimal area),[4]; [5],substantially reduced
same,intima/media ratio,[4]; [6],0.30±0.06
same,cuff-induced neointima formation (intimal area),[4]; [6],significant inhibition
same,medial areas of the cuffed femoral arteries,[4]; Wt and Nur77 transgenic mice,No changes
same,intima/media ratio,"[4]; Wt mice, 0.5% 6-MP cuff",0.75±0.05
same,cuff-induced neointima formation (intimal area),"[4]; Wt mice, 0.5% 6-MP cuff",did not show a decrease
same,intima/media ratio,"[4]; Wt mice, 1% 6-MP cuff",0.51±0.03
same,cuff-induced neointima formation (intimal area),"[4]; Wt mice, 1% 6-MP cuff",significant inhibition
same,neointima formation (intimal area),"[4]; ΔTA transgenic mice, 0.5% 6-MP cuff, 2 weeks",no significant effect
same,neointima formation (intimal area),"[4]; ΔTA transgenic mice, 1% 6-MP cuff, 2 weeks",no significant effect
same,media thickness,"[4]; ΔTA transgenic mice, 2 weeks",did not change
